Where “and” joins values, the source holds several entries; their conditions need not be identical. Identical values can stand only once. Like-named read-outs stand apart in the source and are kept apart here.
What was measured:
human A2b receptors = target: T1, human A2b receptors (Homo sapiens, UniProt P29275); test: Human A2b receptor pharmacology: cAMP Alphascreen in CHO-K1 cells; assay type: cell-based; conditions: average (SD)
T1 construct: expressed in transfected cells; host or cells: CHO-K1
T1 sequence (P29275 1-332): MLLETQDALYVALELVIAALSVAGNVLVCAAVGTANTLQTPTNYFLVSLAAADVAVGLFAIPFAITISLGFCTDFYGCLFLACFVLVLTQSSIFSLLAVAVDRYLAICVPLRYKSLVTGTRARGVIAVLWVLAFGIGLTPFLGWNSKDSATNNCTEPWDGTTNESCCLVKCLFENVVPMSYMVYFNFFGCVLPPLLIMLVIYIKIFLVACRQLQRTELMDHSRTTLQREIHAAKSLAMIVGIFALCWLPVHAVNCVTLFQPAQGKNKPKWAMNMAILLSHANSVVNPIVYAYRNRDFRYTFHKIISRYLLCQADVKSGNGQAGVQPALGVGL
Description: (§1) • Human A2a and A2b receptor pharmacology: Chinese hamster ovary CHO-K1 cells stably expressing human A2a and A2b receptors were used to determine substances agonistic potency and intrinsic activity. […] The signal corresponding to adenosine at 100 μmol/L was used to define 100% intrinsic activity. • Human A3 receptor pharmacology: A3 receptor Gi coupling was measured by GTPγ ^35[S] filter assay at serial dilutions of compound using membranes from Perkin-Elmer. The signal corresponding to the maximal response of NECA at 100 μmol/L was set to 100% intrinsic activity. • Lipopolysaccharide (LPS)-induced TNFα production in primary human peripheral blood mononuclear cells (hTNFα PBMC) and rat mononuclears (rTNFα splenocytes): Human PBMC and rat mononuclear spleen cells were incubated with serial dilutions of compound and stimulated with LPS.
Chinese hamster ovary CHO-K1 cells stably expressing human A2a and A2b receptors were stored as 1ml aliquots at -150 °C in freezing medium, thawed immediately prior to assay. […] Cells (10000 cells/well) were incubated with test compounds prepared as serial dilutions. Potency (EC50) and efficacy (% of maximal response) were calculated from data fitted to a 4-parameter logistic function. The signal of 10µM NECA represented the maximal cAMP response (i.e. 100% of efficacy) produced by these cells.

adenosine A1 receptor = target: T2, adenosine A1 receptor (Homo sapiens, UniProt P30542); test: Human A1 receptor pharmacology: GTPγ35[S] assay on membranes; assay type: biochemical; conditions: average (SD)
T2 construct: purchased Perkin Elmer ES-010-M400UA
T2 sequence (P30542 1-326): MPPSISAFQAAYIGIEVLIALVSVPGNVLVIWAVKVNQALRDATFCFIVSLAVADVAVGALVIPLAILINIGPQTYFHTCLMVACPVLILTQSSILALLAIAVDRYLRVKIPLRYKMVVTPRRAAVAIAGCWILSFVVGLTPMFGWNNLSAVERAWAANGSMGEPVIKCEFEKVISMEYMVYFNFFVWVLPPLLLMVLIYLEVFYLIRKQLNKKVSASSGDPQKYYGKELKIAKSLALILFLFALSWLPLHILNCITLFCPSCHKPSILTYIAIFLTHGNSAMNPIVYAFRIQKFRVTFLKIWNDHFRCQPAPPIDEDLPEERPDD
Description: as §1
The A1 receptor Gi coupling was measured by a scintillation proximity (SPA) GTPγ ^35[S] assay. Membranes (12.5μg/ml final concentration) were incubated with substances in serial dilutions (50mM Hepes, pH 7.4, 1mM MgCl2, 100mM NaCl, 0.01% BSA, 50μg/ml saponin and 2.5μM GDP) including 1mg/ml Scintillation Beads (Wheat Germ Agglutinin PVT SPA, Perkin Elmer - Rpnq0001), 0.3nM of GTPγ ^35[S] (Perkin Elmer - NEG030H) and counts were read after 16h incubation at 4 °C. The signal corresponding to adenosine at 100μM was used to define 100% efficacy.

[1] = system: LPS-induced TNFα production in rat splenocytes; test: LPS-induced TNFα production in rat mononuclear spleen cells (rTNFα splenocytes); assay type: cell-based; conditions: Splenocyte
Description: as §1
Procedures and assays were run in R10 buffer (RPMI 1640 Medium supplemented with GlutaMAX™ and HEPES (GIBCO-BRL), 10% fetal calf serum, penicillin and streptomycin (each 5000IU/ml)). Human PBMC were purified from heparinised blood by Ficoll separation (Ficoll, Amersham Pharmacia Biotech AB, Cat: 17-1440-03, Lot: 312170) and rat mononuclear cells were collected after rat spleen perfusion. Both cell preparations were followed by hypotonic lysis of residual erythrocytes. Serial dilutions of compounds were pre-incubated with 200 000 cells/well (96-well plate) for 45min in 37 °C (190µl). Cells were stimulated by 10µl LPS (final concentration 0.5ng/ml human and 150ng/ml rat; SIGMA Cat: L-4516, Lot: 104K4036) for 18h at 37 °C. TNFα release was measured by ELISA (^TmR&D Systems plates) according to the manufacturer’s instructions in cell free supernatant.

[2] = system: mean arterial blood pressure and heart rate; test: Swivel study: four-step i.v. infusion in conscious rats, PK-PD of MAP and HR; assay type: in vivo, rat; parameters: Emax,MAP (maximum compound 2-induced decrease in MAP) / Emax,HR (maximum compound 2-induced increase in HR): unit not given here; conditions: for EC50: rat plasma concentration
Description: The relationship between plasma concentrations of compound 2 and mean arterial pressure (MAP) and HR, respectively, were modeled using data generated in the swivel study, including data from start of first infusion up to 2 h after end of last infusion (Dose 1–4, equivalent to 1.9, 11, 67 and 410 μg/kg per min for 15 min at each step). The baseline value, calculated as average of measurements during the 60 min baseline recording period was used as the predose value. Temporal differences between effect measurements and blood sampling for plasma analysis were accounted for by fitting a standard two-compartment PK model to the time-concentration profile for each individual animal, and subsequently using the individual parameter estimates to simulate compound 2 plasma concentrations at the times of effect measurements. Phoenix® WinNonlin® Version 6.2.1 (Certara, L.P., Princetown, NJ) was used for modelling.
A 4-step intravenous infusion protocol was performed during continuous recording of the arterial blood pressure signal and intermittent blood sampling in seven conscious rats the day after surgical implantation of an arterial line in the abdominal aorta via the caudal artery and a venous line in the jugular vein. After a baseline recording of 60 minutes, compound 2 was given in 15-minute constant infusion steps of 1.9, 11, 67 and 410μg/kg/min (0.034-0.2ml/kg/min) followed by a washout period of 120 minutes. One rat was monitored under the same conditions as a time-matched control. Blood samples for analysis of drug exposure were taken at the end of each dose step and intermittently during the washout.

[3] = calculated from PK-PD relationships
[4] = conscious rats, 2 h after end of four-step i.v. infusion

Compound: CCNC(=O)[C@H]1O[C@@H](n2cnc3c(NC(CC)CC)nc(NCCNC(=O)Nc4cc[n+](C)cc4)nc32)[C@H](O)[C@@H]1O [Compound 2, (2S,3S,4R,5R)-N-ethyl-5-[6-(1-ethylpropylamino)-2-[2-[(1-methylpyridin-1-ium-4-yl)carbamoylamino]ethylamino]purin-9-yl]-3,4-dihydroxy-tetrahydrofuran-2-carboxamide]
- EC50 (human A2b receptors): 3600 nM
- EC50 (adenosine A1 receptor): 2100 nM
- EC50 ([1]; Rattus norvegicus, read-out: EC50, inhibition of LPS stimulated TNFα release in rat splenocytes): 0.6 nM
- IC50 ([1]; LPS-stimulated TNFα release, rat splenocytes, average (SD)): 0.6 nM
- Emax ([1]; LPS-stimulated TNFα release, rat splenocytes, average (SD), read-out: rTNFα splenocytes Intrinsic activity): 57.4%
- Concentration for 10% MAP decrease relative to plasma concentration at effective dose (fold lower) ([2]; 0.3 nmol/L vs 2-4 nmol/L at 10 μg/kg i.t.): 10 fold
- kE0 (first-order rate constant, effect compartment) ([2]; PK-PD model of MAP, mean ± SD): 0.058 ± 0.039 min⁻¹
- EC50 ([2]; Rattus norvegicus, iv, sigmoid Emax model, mean ± SD, read-out: EC50,MAP (plasma concentration that induces half the maximum MAP decrease)): 0.5 nM
- EC50 ([2]; Rattus norvegicus, iv, simple Emax model on mean data, read-out: EC50,HR): 0.18 nM
- Plasma concentration that produces 10% increase from baseline HR [2, 3]: 0.04 nM
- Total plasma concentration that causes 10% decrease from baseline MAP [2, 3]: 0.3 ± 0.2 nmol/L and 0.3 nmol/L
- Blood pressure 2 h postdosing [2, 4]: 100 ± 7 mmHg
- Heart rate 2 h postdosing [2, 4]: 489 ± 41 bpm
- Heart rate at dose 2 ([2]; conscious rats, i.v. infusion 11 μg/kg per min for 15 min, baseline 381 ± 21): 472 ± 33 bpm
- Blood pressure at dose 3 ([2]; conscious rats, i.v. infusion 67 μg/kg per min for 15 min, baseline 114 ± 9): 98 ± 9 mmHg
- Core body temperature ([2]; highest dose (410 μg/kg per min i.v.)): significant reduction
- EC50 ([2]; sigmoid Emax model, mean ± SD, read-out: EC50,MAP (plasma concentration that induces half the maximum MAP decrease)): 0.52 ± 0.16 nM
- Emax,MAP (maximum compound 2-induced decrease in MAP) ([2]; sigmoid Emax model, mean ± SD): 37 ± 11
- Emax,HR (maximum compound 2-induced increase in HR) ([2]; simple Emax model on mean data): 158

From publication PMC4492750, “The discovery of a selective and potent A2a agonist with extended lung retention” (Pharmacology Research & Perspectives, 2015)
